# Data reported in patent US11077126B2 (priority 2017, dated 2021).
# Experiments:
# [1] = test system: transplanted tumor of human leukemia HL-60 cells; assay: Human leukemia in nude mice model; details: HL-60 nude mice; 30 mg/kg i.g. 30 d
# Description: HL-60 cells in a logarithmic growth phase were taken and subjected to a trypan blue exclusion experiment showing that the cell viability was more than 95%, then the cells were subjected to trypsinization, centrifugation, and supernatant removal. Then cell concentration was adjusted to 1×10^7/ml with matrigel, and then each nude mouse was inoculated subcutaneously with 0.2 ml of cells at its right armpit and recorded as the first day of inoculation. […] Each group was continuously administered intragastrically for 30 days with a dose of 20 ml/kg. The mice were sacrificed the next day after drug withdrawal and the indicators were tested. The long diameter and short diameter of the tumor, and the body weight of each mouse were recorded every 3 days from drug administration to nude mouse sacrifice.
# (§1) The body weight of the nude mice and the long diameter (a) and short diameter (b) of the transplanted tumor were measured every 3 days, and the tumor volume (v), relative tumor volume (RTV) and relative tumor proliferation rate (T/C) are calculated respectively according to the following formulas, wherein V=a×b^2/2; RTV=V/V0 (V0 is the tumor volume before administration, V is the tumor volume before sacrifice), and T/C (%)=treatment group RTV/model control group RTV×100%.
# (§2) Each mouse was weighed and sacrificed. After the tumor was completely stripped off from the body of the mouse, the non-tumor tissues such as blood stains and fat were removed to weigh the tumor and calculate the tumor growth inhibition rate. The average tumor weight of each group of mice is used as an indicator of efficacy. Tumor growth inhibition rate (%)=(1−the average tumor weight of the treatment group/the average tumor weight of the model group)×100%.
# [2] = test system: NK cell activity of spleen cells against K562 cells; assay: Natural killer (NK) cell activity of Lewis lung cancer tumor-bearing mice; format: in vivo, C57BL/6 mouse
# Description: The serum-free RPMI 1640 medium was placed in a dish, and then the dish was placed on ice. The spleen was aseptically taken and gently ground with a sterile glass slide to prepare a single cell suspension. The single cell suspension was filtered with a double-layer sterile gauze, washed twice with serum-free RPMI 1640 medium, and centrifuged at 1,500 rpm for 5 min to remove the obtained supernatant. 2 mL of red blood cell lysate was added to the treated suspension, the mixture was allowed to stand for 2 min, and then 8 mL of RPMI 1640 medium was added, centrifuging was performed at 1,500 rpm for 5 min to remove the obtained supernatant, and then washing was performed twice with the RPMI 1640 medium. Trypan blue staining was performed to count the number of live cells, and the cell viability was more than 95%. […]
# The spleen cell suspension was taken, and the cell density was adjusted to 1×10^7/mL (effector cells). […] Each mouse was set with: A. effector cells:target cell well (quantity ratio 20:1) to which 20 μL of spleen cell suspension and 100 μL of K562 cell suspension were added; B. an effector cell control well, to which 100 μL of spleen cell suspension and 100 μL of RPMI 1640 medium were added; and C. a target cell control well, to which 100 μL of K562 cell suspension and 100 μL of RPMI 1640 medium were added. […]
# [3] = test system: transplanted tumor of human glioblastoma A172 cells; assay: Human glioblastoma in nude mice model; details: 30 mg/kg i.g. 30 d
# Description: (§3) Then cell concentration was adjusted to 1×10^7/ml with matrigel, then each nude mouse was inoculated subcutaneously with 0.2 ml of cells at its right armpit and recorded as the first day of inoculation. […] Each group was continuously administered intragastrically for 30 days with a dose of 20 ml/kg. The mice were sacrificed the next day after drug withdrawal and the indicators were tested. The long diameter and short diameter of the tumor, and the body weight of each mouse were recorded every 3 days from drug administration to nude mouse sacrifice.
# as §1, §2
# [4] = test system: transplanted tumor of human cervical cancer HeLa cells; assay: Human cervical cancer in nude mice model; details: 30 mg/kg i.g. 30 d
# Description: as §3, with “Then the cells were subjected to trypsinization, centrifugation, and supernatant removal. Then” for “Then”
# as §1
# Calculation of Tumor Growth Inhibition Rate Each mouse was weighed and sacrificed. After the tumor was completely stripped off from the body of the mouse, the non-tumor tissues such as blood stains and fat were removed to weigh the tumor and calculate the tumor growth inhibition rate. The average tumor weight of each group of mice is used as an indicator of efficacy. Tumor growth inhibition rate (%)=(1−the average tumor weight of the treatment group/the average tumor weight of the model group)×100%.
# [5] = test system: transplanted tumor of human large cell lung cancer H460 cells; assay: Human large cell lung cancer (H460) in nude mice model; details: 30 mg/kg i.g. 30 d
# Description: Then cell concentration was adjusted to 1×10^7/ml with matrigel, and then each nude mouse was inoculated subcutaneously with 0.2 ml of cells at its right armpit and recorded as the first day of inoculation. […] Each group was continuously administered intragastrically for 30 days with a dose of 20 ml/kg. The mice were sacrificed the next day after drug withdrawal and the indicators were tested. The long diameter and short diameter of the tumor, and the body weight of each mouse were recorded every 3 days from drug administration to nude mouse sacrifice.
# as §1, §2
compound,measurement,setting,value
O=P1(N(CCCl)CCCl)NCCCO1 (stereo not drawn) [Cyclophosphamide],Body Weight (g)(d1),[1],22.66 ± 1.11 g
same,Body Weight (g)(d30),[1],20.52 ± 1.73 g
same,Inhibition Rate (%),[1],81.37%
same,Relative Tumor Proliferation Rate(T/C),[1],58.63%
same,Relative Tumor Volume (RTV),[1],6.76 ± 2.53
same,Tumor Volume (mm3) (d1),[1],209.22 ± 50.12 mm3
same,Tumor Volume (mm3) (d30),[1],1415.16 ± 320.21 mm3
same,Tumor Weight,[1],1.46 ± 0.24 g
same,NK Cell Activity (%),"[2]; 26 mg/kg, n = 6",25.4 ± 6.6 %
same,NK cell activity compared with the control group,"[2]; cyclophosphamide, P<0.05",significantly lower
same,Body Weight (g)(d1),[3],22.89 ± 1.22 g
same,Body Weight (g)(d30),[3],19.27 ± 1.49 g
same,Inhibition Rate (%),[3],68.68%
same,Relative Tumor Proliferation Rate(T/C),[3],75.42%
same,Relative Tumor Volume (RTV),[3],11.78 ± 3.25
same,Tumor Volume (mm3) (d1),[3],122.41 ± 14.06 mm3
same,Tumor Volume (mm3) (d30),[3],1430.80 ± 134.31 mm3
same,Tumor Weight,[3],0.85 ± 0.18 g
same,Body Weight (g)(d1),[4],20.04 ± 0.68 g
same,Body Weight (g)(d30),[4],19.20 ± 0.18 g
same,Inhibition Rate (%),[4],72.48%
same,Relative Tumor Proliferation Rate(T/C),[4],24.35%
same,Relative Tumor Volume (RTV),[4],3.44 ± 0.93
same,Tumor Volume (mm3) (d30),[4],397.88 ± 103.60 mm3
same,Tumor Weight,[4],0.49 ± 0.39 g
same,Body Weight (g)(d1),[5],20.32 ± 0.87 g
same,Body Weight (g)(d30),[5],19.25 ± 0.83 g
same,Inhibition Rate (%),[5],68.49%
same,Relative Tumor Proliferation Rate(T/C),[5],36.37%
same,Relative Tumor Volume (RTV),[5],7.66 ± 1.26
same,Tumor Volume (mm3) (d1),[5],130.82 ± 2.38 mm3
same,Tumor Volume (mm3) (d30),[5],1002.08 ± 48.82 mm3
same,Tumor Weight,[5],0.61 ± 0.13 g
